Results reported in patent publication US9096835B2, “DNA polymerase” (Medical Research Council, priority 2003, dated 2015).

Key:
Type in all cases: biochemical
phage λ DNA template = assay: Long PCR; settings: standard PCR conditions, no auxiliary polymerases or processivity factors
Description: (§1) A PCR assay was used to screen and rank clones. Briefly, clones were normalized for activity in PCR with matched primers 3, 4 and activity with mismatched primers 1 and 2 (1 μM each) determined at minimal cycle number (15-25 cycles). Extension capability for different mismatches was determined by the same assay using mismatch primers 2 (C•C mismatch), 5 (A•A mismatch), 6 (G•G mismatch), 7 (G•A mismatch) with matched primer 3 or primer 1 (A•G mismatch) with matched primer 4. Incorporation of unnatural substrates in 50 cycle PCR was carried out using standard conditions and 50 μM […] dNTPs (Promega) or 50 μM FITC-12-dATP (Perkin-Elmer), Rhodamine-5-dUTP (Perkin-Elmer) or Biotin-16-dUTP (Roche) with equivalent amounts of the other 3 dNTPs (all 50 μM). Long PCR was carried out using a two-step cycling protocol as described (22) 94° C. for 2 minutes, followed by 20 cycles of (94° C. 15 sec, 68° C. 30 min) using 5 ng of phage λ DNA (New England Biolabs) template and either primers 9, 10, 11 with primer 12 or primer 13 with primers 10, 14.

[1] = Incorporation and extension of 5-nitroindole-5′-triphosphate; settings: 50° C., identical conditions as 4D11 and 5D4; data not shown
Description: (§2) 50 pmol of ^32P-labelled primer and 100 pmol of template in a volume of 44 μl were annealed in 1× Taq buffer. 4D11 or 5D4 polymerase as cell lysate (6 μl) was added and reactions were incubated at 50° C. for 15 minutes followed by addition of d5NITP (1 μl in total volume of 50 µL final dNTP concentration 40 μM). 8 μl samples were taken at various time points and added to 8 μl stop solution (7M urea, 100 mM EDTA containing xylene cyanol F). At the end of the time course the 4 native dNTPs were added (final concentration each dNTP 40 μM) and reactions incubated at 50° C. for a further 30 minutes.

[2] = system: template containing 5-Nitroindole; assay: Primer extension opposite 5-nitroindole; settings: 50° C., cell lysate, identical conditions as 4D11 and 5D4; data not shown
Description: as §2, with “one dNTP” for “d5NITP”, “μl,” for “µL”, “remaining 3” for “4 native”, “minutes. Reaction samples were electrophoretically separated using 20% polyacrylamide gels at 25 W for 4 hours. The resultant gels were dried and scanned using a phosphorimager (Molecular Dynamics). Data was processed using the program ImageQuant (Molecular Dynamics).” for “minutes.”

[3] = PCR with dATP replaced by FITC-12-dATP; settings: 50 cycle PCR, dATP completely replaced
Description: as §1

PCR with Biotin-16-dUTP = settings: 50 cycle PCR, complete replacement
Description: as §1

[4] = Catalytic efficiency kcat/Km

Row | Molecule | size of targets amplified in long PCR (phage λ DNA template) | size of targets amplified in long PCR (phage λ DNA template; listed as WtTaq) | incorporation and extension of d5NITP [1] | extension opposite 5-nitroindole [2] | PCR amplification with FITC-12-dATP [3] | PCR amplification with Biotin-16-dUTP (PCR with Biotin-16-dUTP) | size of amplification product fully labelled with FITC-12-dATP [3] | kcat/Km relative to Taq wild type [4] | size of amplification products fully labelled with Biotin-16-dUTP (PCR with Biotin-16-dUTP)
1 | wtTaq: Thermus aquaticus (Taq) wild type DNA polymerase [reference compound] | ≤ 9 kb | ≤ 8.8 kb | almost undetectable extension reactions | almost undetectable extension reactions | unable to generate any amplification products | unable to generate any amplification products | – | – | –
2 | M1: Taq mutant G84A, D144G, K314R, E520G, F598L, A608V, E742G; SEQ ID NO: 1 (protein, Mutant Thermus aquaticus DNA polymerase) MRGMLPLFEPKGRVLLVDGHHLAYRTFHALKGLTTSRGEPVQAVYGFAKSLLKALKEDGDAVIVVFDAKAPSFRHEAYGGYKAARAPTPEDFPRQLALIKELVDLLGLARLEVPGYEADDVLASLAKKAEKEGYEVRILTADKGLYQLLSDRIHVLHPEGYLITPAWLWEKYGLRPDQWADYRALTGDESDNLPGVKGIGEKTARKLLEEWGSLEALLKNLDRLKPAIREKILAHMDDLKLSWDLAKVRTDLPLEVDFAKRREPDRERLRAFLERLEFGSLLHEFGLLESPKALEEAPWPPPEGAFVGFVLSRREPMWADLLALAAAAGGRVHRAPEPYKALRDLKEARGLLAKDLSVLALREGLGLPPGDDPMLLAYLLDPSNTTPEGVARRYGGEWTEEAGERAALSERLFANLWGRLEGEERLLWLYREVERPLSAVLAHMEATGVRLDVAYLRALSLEVAEEIARLEAEVFRLAGHPFNLNSRDQLERVLFDELGLPAIGKTEKTGKRSTSAAVLGALREAHPIVEKILQYRELTKLKSTYIDPLPDLIHPRTGRLHTRFNQTATATGRLSSSDPNLQNIPVRTPLGQRIRRAFIAEEGWLLVVLDYSQIELRVLAHLSGDENLIRVFQEGRDIHTETASWMFGVPREAVDPLMRRAAKTINFGVLYGMSAHRLSQELAIPYEEAQAFIERYFQSFPKVRAWIEKTLEEGRRRGYVETLFGRRRYVPDLEARVKSVRGAAERMAFNMPVQGTAADLMKLAMVKLFPRLEEMGARMLLQVHDELVLEAPKERAEAVARLAKEVMEGVYPLAVPLEVEVGIGEDWLSAKE | – | – | – | – | – | – | 0.4 kb | 14% | 2.7 kb
